Measurements as given in ChEMBL document CHEMBL1201862, “PubChem BioAssay data set” (2004).
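Five concentrations, 48 hours, 96-well plates. At the GI50, growth is halved.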 Calls of active or inactive are those of the source. Cut-off read from the data, not from the text of the source: active = GI50 up to about 1.1 µM and inactive = higher.

Assays:
Experiment in all cases: growth of human tumour cells (NCI), 48 h
[1] = system: SF-295
[2] = system: SW-620
[3] = system: NCI-H522
[4] = system: M14
[5] = system: U-251
[6] = system: LOX IMVI
[7] = system: HCT-15
[8] = system: UO-31
[9] = system: K562
[10] = system: HOP-62
[11] = system: ACHN
[12] = system: RXF 393
[13] = system: HOP-18
[14] = system: NCI-H460
[15] = system: IGROV-1
[16] = system: OVCAR-5
[17] = system: NCI/ADR-RES
[18] = system: BT-549
[19] = system: MDA-MB-435
[20] = system: Hs-578T

Compound | GI50 [1] | GI50 [2] | GI50 [3] | GI50 [4] | GI50 [5] | GI50 [6] | GI50 [7] [µM] | GI50 [8] | GI50 [9] | GI50 [10] | GI50 [11] | GI50 [12] | GI50 [13] | GI50 [14] | GI50 [15] | GI50 [16] | GI50 [17] | GI50 [18] | GI50 [19] | GI50 [20]
CCCCCCCCCOC(=S)NCCCCC | 47.1 µM (inactive) | 32.7 µM (inactive) | 20.3 µM (inactive) | 28.6 µM (inactive) | 21.7 µM (inactive) | 15.6 µM (inactive) | 23.9 | 17.2 µM (inactive) | 27 µM (inactive) | 26.4 µM (inactive) | 29.1 µM (inactive) | 19.9 µM (inactive) | 33.4 µM (inactive) | 28 µM (inactive) | 38.4 µM (inactive) | – | – | – | – | –
CCOc1c(Cc2ccccc2)c(=O)n2c3ccccc3n3c(=O)n(C)c(=O)c1c23 | 59.6 µM (inactive) | > 100 µM (inactive) | – | > 100 µM (inactive) | > 100 µM (inactive) | > 100 µM (inactive) | > 100 | > 100 µM (inactive) | – | > 100 µM (inactive) | > 100 µM (inactive) | > 100 µM (inactive) | > 100 µM (inactive) | > 100 µM (inactive) | > 100 µM (inactive) | > 100 µM (inactive) | – | – | – | –
CC1C(=O)N(C)C2(CO)C(=O)O[C@H](C)C12O (some centres undefined) | 28.1 µM (inactive) | – | – | > 100 µM (inactive) | > 100 µM (inactive) | – | > 100 | > 100 µM (inactive) | > 100 µM (inactive) | > 100 µM (inactive) | – | > 100 µM (inactive) | > 100 µM (inactive) | – | > 100 µM (inactive) | > 100 µM (inactive) | – | – | – | –
OC[C@@H]1CC#C/C=C\C#CC[C@@H]1CO | > 100 µM (inactive) | – | – | > 100 µM (inactive) | > 100 µM (inactive) | – | > 100 | > 100 µM (inactive) | > 100 µM (inactive) | > 100 µM (inactive) | – | > 100 µM (inactive) | > 100 µM (inactive) | – | > 100 µM (inactive) | > 100 µM (inactive) | – | – | – | –
COc1ccc(/C=C2\CCC(CCN3CCOCC3)C2=O)cc1 (centres undefined) | > 100 µM (inactive) | > 100 µM (inactive) | – | > 100 µM (inactive) | – | > 100 µM (inactive) | > 100 | > 100 µM (inactive) | > 100 µM (inactive) | > 100 µM (inactive) | > 100 µM (inactive) | > 100 µM (inactive) | > 100 µM (inactive) | > 100 µM (inactive) | > 100 µM (inactive) | > 100 µM (inactive) | – | – | – | –
O=c1oc2c3ccc4ccccc4c3n(CCN3CCCCC3)c2c2ccccc12 | 16.8 µM (inactive) | 18.8 µM (inactive) | 17.9 µM (inactive) | 20 µM (inactive) | 17.7 µM (inactive) | 31.1 µM (inactive) | 38.2 | 49.4 µM (inactive) | 15.1 µM (inactive) | 21.3 µM (inactive) | 31.6 µM (inactive) | 14.8 µM (inactive) | > 100 µM (inactive) | 4.12 µM (inactive) | > 55.2 µM (inactive) | > 100 µM (inactive) | – | – | – | –
CCCCCCCC/C=C1\CCC(CN2CCOCC2)C1=O (centres undefined) | 14.7 µM (inactive) | 2.7 µM (inactive) | 2.69 µM (inactive) | 5.37 µM (inactive) | 14.8 µM (inactive) | 3.43 µM (inactive) | 3.09 | 8.36 µM (inactive) | 2.74 µM (inactive) | 15.1 µM (inactive) | 16.4 µM (inactive) | 12.5 µM (inactive) | 13.1 µM (inactive) | 16.5 µM (inactive) | 7.35 µM (inactive) | 20.4 µM (inactive) | 3.79 µM (inactive) | 10.8 µM (inactive) | 4.81 µM (inactive) | 4.36 µM (inactive)
N#CC(C(=O)C(=O)Nc1ccc(Cl)c(Cl)c1)c1ccc(Cl)cc1 (centres undefined) | 87.9 µM (inactive) | 16 µM (inactive) | 25.2 µM (inactive) | > 100 µM (inactive) | 40.8 µM (inactive) | 16.7 µM (inactive) | 32.5 | 47.1 µM (inactive) | 23.4 µM (inactive) | > 100 µM (inactive) | 83 µM (inactive) | > 100 µM (inactive) | 41 µM (inactive) | 32.1 µM (inactive) | > 100 µM (inactive) | > 100 µM (inactive) | – | – | – | –
CN(C)CC1CCCC/C1=N/OC(=O)c1ccc(Cl)cc1 (centres undefined) | > 100 µM (inactive) | > 100 µM (inactive) | > 100 µM (inactive) | > 100 µM (inactive) | > 100 µM (inactive) | > 100 µM (inactive) | > 100 | > 100 µM (inactive) | > 100 µM (inactive) | > 100 µM (inactive) | > 100 µM (inactive) | > 100 µM (inactive) | > 100 µM (inactive) | > 100 µM (inactive) | > 100 µM (inactive) | > 100 µM (inactive) | – | – | – | –
Cn1c(=O)c2nc(-c3ccc(Cl)cc3)oc2n(C)c1=O | > 100 µM (inactive) | > 100 µM (inactive) | > 100 µM (inactive) | > 100 µM (inactive) | > 100 µM (inactive) | > 100 µM (inactive) | > 100 | > 100 µM (inactive) | > 100 µM (inactive) | – | > 100 µM (inactive) | > 100 µM (inactive) | > 100 µM (inactive) | > 100 µM (inactive) | – | > 100 µM (inactive) | – | – | – | –
CC(C)c1cccc(C(C)C)c1NC(=O)C(=O)C1SC(=S)NC1=O (centres undefined) | > 100 µM (inactive) | > 100 µM (inactive) | > 100 µM (inactive) | > 100 µM (inactive) | > 100 µM (inactive) | > 100 µM (inactive) | > 100 | > 100 µM (inactive) | > 100 µM (inactive) | > 100 µM (inactive) | > 100 µM (inactive) | > 100 µM (inactive) | > 100 µM (inactive) | > 100 µM (inactive) | > 100 µM (inactive) | > 100 µM (inactive) | – | – | – | –
Oc1cc(-c2cccc(Br)c2)nc2cc3c(cc12)OCO3 | 1.06 µM (active) | 3.61 µM (inactive) | 3.93 µM (inactive) | 2.65 µM (inactive) | 3.56 µM (inactive) | 2.75 µM (inactive) | 4.14 | 5.81 µM (inactive) | 3.74 µM (inactive) | 1.99 µM (inactive) | 5.32 µM (inactive) | 4.33 µM (inactive) | 15.7 µM (inactive) | 4.01 µM (inactive) | 1.8 µM (inactive) | 51.5 µM (inactive) | 4.56 µM (inactive) | 3.6 µM (inactive) | 0.883 µM (active) | 3.32 µM (inactive)
COC(=O)NN1C(C)=C(C(=O)OC)C2(C#N)C(C(=O)OC)=C(C)N(NC(=O)OC)C12N (centres undefined) | – | > 100 µM (inactive) | > 100 µM (inactive) | > 100 µM (inactive) | > 100 µM (inactive) | > 100 µM (inactive) | > 100 | > 100 µM (inactive) | > 100 µM (inactive) | > 100 µM (inactive) | > 100 µM (inactive) | – | > 100 µM (inactive) | > 100 µM (inactive) | > 100 µM (inactive) | > 100 µM (inactive) | – | – | – | –
C/C(=N\c1cc(Cl)cc(Cl)c1)c1ccncc1 | > 100 µM (inactive) | > 100 µM (inactive) | > 100 µM (inactive) | > 100 µM (inactive) | > 100 µM (inactive) | > 100 µM (inactive) | > 100 | 89.7 µM (inactive) | > 100 µM (inactive) | > 100 µM (inactive) | > 100 µM (inactive) | > 100 µM (inactive) | – | > 100 µM (inactive) | > 100 µM (inactive) | > 100 µM (inactive) | > 100 µM (inactive) | > 100 µM (inactive) | > 100 µM (inactive) | > 100 µM (inactive)
c1ccc2c(c1)-c1ccccc1C2N1CC2CCC(CC2)C1 | 19.3 µM (inactive) | 22.1 µM (inactive) | 10.5 µM (inactive) | 26.7 µM (inactive) | 17.1 µM (inactive) | 18.7 µM (inactive) | 16.8 | 28.8 µM (inactive) | 17.3 µM (inactive) | 25.2 µM (inactive) | 23 µM (inactive) | 17.8 µM (inactive) | – | 19.8 µM (inactive) | 20.7 µM (inactive) | 18 µM (inactive) | 15.5 µM (inactive) | 16.8 µM (inactive) | 25.1 µM (inactive) | 3.37 µM (inactive)
Cc1ccc(S(=O)OC2c3ccccc3Cc3ccccc32)cc1 (centres undefined) | 23.9 µM (inactive) | 22.5 µM (inactive) | 13.9 µM (inactive) | 18.6 µM (inactive) | 27.6 µM (inactive) | 14.4 µM (inactive) | 19.9 | 18.3 µM (inactive) | 17.7 µM (inactive) | 17.5 µM (inactive) | 22.4 µM (inactive) | 13.3 µM (inactive) | 24.8 µM (inactive) | 22.3 µM (inactive) | 21.6 µM (inactive) | 15.6 µM (inactive) | – | – | – | –
N#CCCSC1SC(=C2SC3=C(SCCS3)S2)SC1SCCC#N (centres undefined) | > 100 µM (inactive) | > 100 µM (inactive) | > 100 µM (inactive) | > 100 µM (inactive) | > 100 µM (inactive) | > 100 µM (inactive) | > 100 | > 100 µM (inactive) | > 100 µM (inactive) | > 100 µM (inactive) | > 100 µM (inactive) | > 100 µM (inactive) | – | > 100 µM (inactive) | > 100 µM (inactive) | > 100 µM (inactive) | > 100 µM (inactive) | > 100 µM (inactive) | > 100 µM (inactive) | > 100 µM (inactive)
CCC1CC(=O)N(SCC(N)C(=O)O)C1=O (centres undefined) | > 100 µM (inactive) | > 100 µM (inactive) | > 100 µM (inactive) | > 100 µM (inactive) | > 100 µM (inactive) | > 100 µM (inactive) | > 100 | > 100 µM (inactive) | > 100 µM (inactive) | > 100 µM (inactive) | > 100 µM (inactive) | > 100 µM (inactive) | – | > 100 µM (inactive) | > 100 µM (inactive) | > 100 µM (inactive) | > 100 µM (inactive) | > 100 µM (inactive) | > 100 µM (inactive) | > 100 µM (inactive)
